Data as given in the kinase profiling compilation of Christmann-Franck et al. (2016).

Assays:
Assay in all cases: KINOMEscan competition binding
Conditions in all cases: compound 10.0 µM
PRKCH (human) = PRKCH (human) (UniProt P24723)
CAMKK1 (human) = CAMKK1 (human) (UniProt Q8N5S9)
MUSK (human) = MUSK (human) (UniProt O15146)
TRPM6 (human) = TRPM6 (human) (UniProt Q9BX84)
CDKL1 (human) = CDKL1 (human) (UniProt Q00532)
IRAK4 (human) = IRAK4 (human) (UniProt Q9NWZ3)
DDR1 (human) = DDR1 (human) (UniProt Q08345)
AURKC (human) = AURKC (human) (UniProt Q9UQB9)
MAPK11 (human) = MAPK11 (human) (UniProt Q15759)
AURKB (human) = AURKB (human) (UniProt Q96GD4)
PIM2 (human) = PIM2 (human) (UniProt Q9P1W9)
STK38 (human) = STK38 (human) (UniProt Q15208)
SRPK2 (human) = SRPK2 (human) (UniProt P78362)
PTK2 (human) = PTK2 (human) (UniProt Q05397)
[1] = test system: KIT (human), P10721 [V559D/V654A]
NEK7 (human) = NEK7 (human) (UniProt Q8TDX7)
WEE2 (human) = WEE2 (human) (UniProt P0C1S8)
CDK18 (human) = CDK18 (human) (UniProt Q07002)
MKNK1 (human) = MKNK1 (human) (UniProt Q9BUB5)
TLK1 (human) = TLK1 (human) (UniProt Q9UKI8)
CDK2 (human) = CDK2 (human) (UniProt P24941)
FGFR2 (human) = FGFR2 (human) (UniProt P21802)
SRMS (human) = SRMS (human) (UniProt Q9H3Y6)
CSNK1E (human) = CSNK1E (human) (UniProt P49674)
TEK (human) = TEK (human) (UniProt Q02763)
CDK4 CCND3 (human) = CDK4 CCND3 (human) (UniProt P11802+P30281)
RIPK2 (human) = RIPK2 (human) (UniProt O43353)
SIK3 (human) = SIK3 (human) (UniProt Q9Y2K2)
[2] = molecular target: JAK1 JH1 catalytic (human) (UniProt P23458)
STK3 (human) = STK3 (human) (UniProt Q13188)
PRPF4B (human) = PRPF4B (human) (UniProt Q13523)
FGFR4 (human) = FGFR4 (human) (UniProt P22455)
FER (human) = FER (human) (UniProt P16591)
RIPK4 (human) = RIPK4 (human) (UniProt P57078)
ITK (human) = ITK (human) (UniProt Q08881)
TYRO3 (human) = TYRO3 (human) (UniProt Q06418)
HIPK4 (human) = HIPK4 (human) (UniProt Q8NE63)
DAPK1 (human) = DAPK1 (human) (UniProt P53355)
YSK4 (human) = YSK4 (human) (UniProt Q56UN5)
PIK3CA (human) = PIK3CA (human) (UniProt P42336)

Sequence of PRKCH (human) (P24723 whole entry, looked up): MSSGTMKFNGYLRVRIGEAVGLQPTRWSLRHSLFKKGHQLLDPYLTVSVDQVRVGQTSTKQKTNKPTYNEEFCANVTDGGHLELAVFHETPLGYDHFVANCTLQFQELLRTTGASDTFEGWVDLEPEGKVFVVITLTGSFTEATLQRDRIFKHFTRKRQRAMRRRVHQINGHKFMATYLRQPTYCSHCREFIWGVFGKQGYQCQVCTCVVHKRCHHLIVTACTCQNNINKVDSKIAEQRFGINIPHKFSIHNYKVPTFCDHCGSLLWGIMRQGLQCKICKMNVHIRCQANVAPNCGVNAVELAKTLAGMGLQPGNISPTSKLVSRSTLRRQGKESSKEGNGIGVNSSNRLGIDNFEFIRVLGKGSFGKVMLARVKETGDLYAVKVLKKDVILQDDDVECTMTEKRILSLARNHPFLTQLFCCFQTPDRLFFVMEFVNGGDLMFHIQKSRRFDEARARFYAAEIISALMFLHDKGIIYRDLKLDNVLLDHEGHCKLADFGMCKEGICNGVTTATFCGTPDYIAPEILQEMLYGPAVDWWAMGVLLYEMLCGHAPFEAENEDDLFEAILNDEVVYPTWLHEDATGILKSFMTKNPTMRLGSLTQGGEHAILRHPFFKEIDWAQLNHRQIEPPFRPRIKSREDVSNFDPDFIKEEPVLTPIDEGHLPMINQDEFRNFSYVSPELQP
Sequence of SIK3 (human) (Q9Y2K2 whole entry, looked up): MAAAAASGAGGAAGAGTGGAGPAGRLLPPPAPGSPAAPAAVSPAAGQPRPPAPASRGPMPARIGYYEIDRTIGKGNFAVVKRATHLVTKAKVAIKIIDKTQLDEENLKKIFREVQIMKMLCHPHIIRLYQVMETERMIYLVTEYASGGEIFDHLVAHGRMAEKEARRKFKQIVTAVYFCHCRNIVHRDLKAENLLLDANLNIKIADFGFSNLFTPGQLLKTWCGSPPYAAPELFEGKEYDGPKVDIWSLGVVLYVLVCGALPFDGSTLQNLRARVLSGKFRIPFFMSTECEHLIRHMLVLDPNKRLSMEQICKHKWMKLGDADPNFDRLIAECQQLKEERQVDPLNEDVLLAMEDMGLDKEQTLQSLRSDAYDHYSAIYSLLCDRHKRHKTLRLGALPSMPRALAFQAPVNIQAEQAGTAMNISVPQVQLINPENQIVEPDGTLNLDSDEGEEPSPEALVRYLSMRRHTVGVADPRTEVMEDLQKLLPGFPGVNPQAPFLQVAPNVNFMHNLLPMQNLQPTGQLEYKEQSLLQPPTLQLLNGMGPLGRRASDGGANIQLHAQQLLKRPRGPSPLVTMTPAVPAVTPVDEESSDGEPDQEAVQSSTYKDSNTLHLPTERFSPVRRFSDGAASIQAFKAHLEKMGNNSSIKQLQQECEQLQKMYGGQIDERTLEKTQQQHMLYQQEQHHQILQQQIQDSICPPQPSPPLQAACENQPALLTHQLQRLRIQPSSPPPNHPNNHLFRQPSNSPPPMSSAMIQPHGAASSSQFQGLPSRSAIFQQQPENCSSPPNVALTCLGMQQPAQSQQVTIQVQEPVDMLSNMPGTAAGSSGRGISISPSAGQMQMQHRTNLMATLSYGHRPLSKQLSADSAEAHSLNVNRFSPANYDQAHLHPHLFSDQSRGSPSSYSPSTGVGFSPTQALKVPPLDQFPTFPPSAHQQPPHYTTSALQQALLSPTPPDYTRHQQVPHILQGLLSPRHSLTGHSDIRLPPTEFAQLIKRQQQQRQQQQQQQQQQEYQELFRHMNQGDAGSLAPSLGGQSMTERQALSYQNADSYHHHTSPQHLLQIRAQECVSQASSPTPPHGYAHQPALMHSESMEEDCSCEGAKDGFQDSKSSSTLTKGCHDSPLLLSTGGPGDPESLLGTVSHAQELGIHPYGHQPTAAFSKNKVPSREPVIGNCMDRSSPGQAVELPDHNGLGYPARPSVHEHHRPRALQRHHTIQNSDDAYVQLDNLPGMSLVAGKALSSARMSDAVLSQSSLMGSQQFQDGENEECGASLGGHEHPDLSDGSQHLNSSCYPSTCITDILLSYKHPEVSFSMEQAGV
Sequence of PRPF4B (human) (Q13523 whole entry, looked up): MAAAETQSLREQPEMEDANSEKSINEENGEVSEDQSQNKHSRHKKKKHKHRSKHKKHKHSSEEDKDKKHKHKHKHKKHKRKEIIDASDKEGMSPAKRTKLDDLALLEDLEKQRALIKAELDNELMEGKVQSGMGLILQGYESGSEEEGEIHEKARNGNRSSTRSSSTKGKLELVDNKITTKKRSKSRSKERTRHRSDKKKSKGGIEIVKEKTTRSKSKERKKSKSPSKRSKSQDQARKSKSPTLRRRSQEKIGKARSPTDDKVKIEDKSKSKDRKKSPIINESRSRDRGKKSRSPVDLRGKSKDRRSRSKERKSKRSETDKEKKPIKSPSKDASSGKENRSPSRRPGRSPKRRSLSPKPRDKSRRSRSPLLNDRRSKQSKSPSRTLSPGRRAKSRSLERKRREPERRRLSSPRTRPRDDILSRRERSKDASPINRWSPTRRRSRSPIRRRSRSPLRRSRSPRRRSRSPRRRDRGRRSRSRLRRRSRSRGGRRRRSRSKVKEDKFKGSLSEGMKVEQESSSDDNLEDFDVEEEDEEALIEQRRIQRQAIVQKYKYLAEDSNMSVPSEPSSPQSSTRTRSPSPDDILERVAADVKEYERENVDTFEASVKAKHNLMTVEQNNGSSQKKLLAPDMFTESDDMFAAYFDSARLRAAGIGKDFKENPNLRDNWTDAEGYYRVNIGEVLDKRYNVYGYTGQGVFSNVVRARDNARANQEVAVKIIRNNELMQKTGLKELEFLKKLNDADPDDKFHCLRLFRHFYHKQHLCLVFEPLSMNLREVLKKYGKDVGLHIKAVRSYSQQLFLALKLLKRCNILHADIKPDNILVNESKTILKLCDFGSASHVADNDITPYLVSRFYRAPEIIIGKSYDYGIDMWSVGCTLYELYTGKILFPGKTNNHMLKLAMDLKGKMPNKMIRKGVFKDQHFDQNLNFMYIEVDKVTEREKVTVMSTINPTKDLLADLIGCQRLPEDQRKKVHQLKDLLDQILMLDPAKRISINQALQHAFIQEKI
Sequence of FER (human) (P16591 whole entry, looked up): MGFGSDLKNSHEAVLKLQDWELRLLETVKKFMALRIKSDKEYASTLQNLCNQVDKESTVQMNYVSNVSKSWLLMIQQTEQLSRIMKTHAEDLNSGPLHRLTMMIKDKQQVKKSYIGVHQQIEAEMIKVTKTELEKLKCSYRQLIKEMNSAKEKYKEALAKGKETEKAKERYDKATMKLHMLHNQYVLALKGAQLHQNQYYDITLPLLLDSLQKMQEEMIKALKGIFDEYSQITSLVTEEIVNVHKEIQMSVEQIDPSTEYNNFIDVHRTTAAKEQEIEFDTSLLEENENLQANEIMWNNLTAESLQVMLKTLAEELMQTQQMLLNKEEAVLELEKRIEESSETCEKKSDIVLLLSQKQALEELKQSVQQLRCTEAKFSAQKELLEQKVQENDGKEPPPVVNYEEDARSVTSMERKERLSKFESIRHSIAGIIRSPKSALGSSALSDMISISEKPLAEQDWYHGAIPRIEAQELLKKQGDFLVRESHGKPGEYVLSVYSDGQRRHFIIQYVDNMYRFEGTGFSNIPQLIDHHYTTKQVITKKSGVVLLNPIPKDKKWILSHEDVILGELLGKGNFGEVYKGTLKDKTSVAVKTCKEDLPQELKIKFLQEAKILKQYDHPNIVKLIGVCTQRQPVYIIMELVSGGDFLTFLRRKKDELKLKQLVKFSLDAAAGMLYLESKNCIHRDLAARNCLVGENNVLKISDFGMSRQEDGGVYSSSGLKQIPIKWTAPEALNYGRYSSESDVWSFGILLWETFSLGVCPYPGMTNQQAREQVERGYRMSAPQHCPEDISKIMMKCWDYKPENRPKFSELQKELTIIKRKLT
Sequence of SRMS (human) (Q9H3Y6 whole entry, looked up): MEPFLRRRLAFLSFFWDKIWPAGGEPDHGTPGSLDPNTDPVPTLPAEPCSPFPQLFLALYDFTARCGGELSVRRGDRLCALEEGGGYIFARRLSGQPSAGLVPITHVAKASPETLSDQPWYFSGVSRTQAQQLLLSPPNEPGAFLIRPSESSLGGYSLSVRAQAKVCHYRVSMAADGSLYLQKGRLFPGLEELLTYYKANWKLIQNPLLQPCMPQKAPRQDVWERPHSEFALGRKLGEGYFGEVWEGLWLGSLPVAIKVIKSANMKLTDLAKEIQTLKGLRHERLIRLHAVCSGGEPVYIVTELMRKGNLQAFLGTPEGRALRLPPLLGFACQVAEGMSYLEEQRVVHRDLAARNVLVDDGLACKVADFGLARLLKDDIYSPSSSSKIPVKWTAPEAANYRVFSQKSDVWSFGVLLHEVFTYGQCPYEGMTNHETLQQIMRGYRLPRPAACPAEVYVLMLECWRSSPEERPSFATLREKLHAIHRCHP
Sequence of MKNK1 (human) (Q9BUB5 whole entry, looked up): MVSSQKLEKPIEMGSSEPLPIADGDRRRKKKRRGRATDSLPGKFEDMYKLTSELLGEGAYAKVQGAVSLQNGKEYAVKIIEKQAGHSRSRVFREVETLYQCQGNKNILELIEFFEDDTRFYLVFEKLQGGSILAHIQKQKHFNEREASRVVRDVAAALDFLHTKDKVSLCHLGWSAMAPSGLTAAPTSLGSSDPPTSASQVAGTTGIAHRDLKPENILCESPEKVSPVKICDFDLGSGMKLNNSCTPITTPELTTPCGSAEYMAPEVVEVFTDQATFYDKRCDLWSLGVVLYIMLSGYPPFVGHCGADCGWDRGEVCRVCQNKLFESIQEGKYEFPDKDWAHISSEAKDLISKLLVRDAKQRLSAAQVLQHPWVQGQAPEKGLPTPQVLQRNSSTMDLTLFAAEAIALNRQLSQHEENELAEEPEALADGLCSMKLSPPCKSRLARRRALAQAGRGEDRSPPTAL

Compound: COc1ccc(N(C(=O)Oc2c(C)cccc2C)c2ccnc(Nc3ccc(N4CCN(C)CC4)cc3)n2)c(OC)c1
- kinase still bound, per cent of control (PRKCH (human)): 35%
- kinase still bound, per cent of control (CAMKK1 (human)): 88%
- kinase still bound, per cent of control (MUSK (human)): 43%
- kinase still bound, per cent of control (TRPM6 (human)): 100%
- kinase still bound, per cent of control (CDKL1 (human)): 100%
- kinase still bound, per cent of control (IRAK4 (human)): 100%
- kinase still bound, per cent of control (DDR1 (human)): 0.25%
- kinase still bound, per cent of control (AURKC (human)): 9.9%
- kinase still bound, per cent of control (MAPK11 (human)): 11%
- kinase still bound, per cent of control (AURKB (human)): 18%
- kinase still bound, per cent of control (PIM2 (human)): 100%
- kinase still bound, per cent of control (STK38 (human)): 100%
- kinase still bound, per cent of control (SRPK2 (human)): 42%
- kinase still bound, per cent of control (PTK2 (human)): 32%
- kinase still bound, per cent of control [1]: 85%
- kinase still bound, per cent of control (NEK7 (human)): 80%
- kinase still bound, per cent of control (WEE2 (human)): 100%
- kinase still bound, per cent of control (CDK18 (human)): 100%
- kinase still bound, per cent of control (MKNK1 (human)): 98%
- kinase still bound, per cent of control (TLK1 (human)): 45%
- kinase still bound, per cent of control (CDK2 (human)): 65%
- kinase still bound, per cent of control (FGFR2 (human)): 0.45%
- kinase still bound, per cent of control (SRMS (human)): 8.6%
- kinase still bound, per cent of control (CSNK1E (human)): 23%
- kinase still bound, per cent of control (TEK (human)): 0.3%
- kinase still bound, per cent of control (CDK4 CCND3 (human)): 26%
- kinase still bound, per cent of control (RIPK2 (human)): 0%
- kinase still bound, per cent of control (SIK3 (human)): 22%
- kinase still bound, per cent of control [2]: 36%
- kinase still bound, per cent of control (STK3 (human)): 23%
- kinase still bound, per cent of control (PRPF4B (human)): 55%
- kinase still bound, per cent of control (FGFR4 (human)): 7.4%
- kinase still bound, per cent of control (FER (human)): 0.85%
- kinase still bound, per cent of control (RIPK4 (human)): 92%
- kinase still bound, per cent of control (ITK (human)): 100%
- kinase still bound, per cent of control (TYRO3 (human)): 18%
- kinase still bound, per cent of control (HIPK4 (human)): 8.8%
- kinase still bound, per cent of control (DAPK1 (human)): 73%
- kinase still bound, per cent of control (YSK4 (human)): 6%
- kinase still bound, per cent of control (PIK3CA (human)): 100%
